pIC50: −log10 of the molar value. One block for each molecule: values may come before it. The source made the active and inactive calls. No cut-off for these calls is given here.
How the values were obtained:
BV-2 [1] = test: Anti-inflammatory activity against mouse BV-2 cells assessed as inhibition of LPS-induced NO production pretreated for 3 hrs followed by LPS addition measured after 24 hrs by Griess reagent based assay; format: functional, cell-based
PC-12 [2] = test: Neuroprotective activity against H2O2-induced neurotoxicity in rat PC-12 cells at 5 to 40 uM incubated for 24 hrs by MTT assay; format: functional, cell-based; details: dose 5-40 µM
PC-12 [3] = test: Neuroprotective activity against 6-OHDA-induced neurotoxicity in rat PC-12 cells at 5 to 40 uM incubated for 24 hrs by MTT assay; format: functional, cell-based; details: dose 5-40 µM
PC-12 [4] = test: Induction of neuronal differentiation in rat PC-12 cells at 10 uM incubated for 48 hrs by microscopic analysis; format: functional, cell-based
PC-12 [5] = test: Induction of neuronal differentiation in rat PC-12 cells assessed as increase in neurite bearing cells incubated for 48 hrs in presence of NGF by microscopic analysis; format: functional, cell-based; details: dose 1-10 µM
BV-2 [6] = test: Anti-inflammatory activity against mouse BV-2 cells assessed as reduction in LPS-induced iNOS expression pretreated for 3 hrs followed by LPS addition measured after 24 hrs by Western blot analysis; format: functional, cell-based; details: dose 3-30 µM, time 27.0 hrs
BV-2 [7] = test: Anti-inflammatory activity against mouse BV-2 cells assessed as reduction in LPS-induced COX-2 expression pretreated for 3 hrs followed by LPS addition measured after 24 hrs by Western blot analysis; format: functional, cell-based; details: dose 3-30 µM, time 27.0 hrs
BV-2 [8] = test: Anti-inflammatory activity against mouse BV-2 cells assessed as inhibition of LPS-induced JNK activation at 30 uM pretreated for 3 hrs followed by LPS addition measured after 24 hrs; format: functional, cell-based; details: time 27.0 hrs
BV-2 [9] = test: Anti-inflammatory activity against mouse BV-2 cells assessed as inhibition of LPS-induced NF-kappaB p65 phosphorylation pretreated for 3 hrs followed by LPS addition measured after 24 hrs by Western blot analysis; format: functional, cell-based; details: dose 3-30 µM, time 27.0 hrs
PC-12 [10] = test: Neuroprotective activity against H2O2-induced neurotoxicity in rat PC-12 cells assessed as increase in HO-1 level at 2.5 to 40 uM by Western blot analysis; format: functional, cell-based; details: dose 2.5-40 µM
PC-12 [11] = test: Neuroprotective activity against H2O2-induced neurotoxicity in rat PC-12 cells assessed as increase in catalase level at 2.5 to 40 uM by Western blot analysis; format: functional, cell-based; details: dose 2.5-40 µM
Caenorhabditis elegans [12] = test: Antialzheimer activity in transgenic Caenorhabditis elegans CL4176 expressing human amyloid-beta peptide assessed as decrease in paralysis rate at 12.5 uM incubated for 14 hrs relative to control; format: functional; design: scale not given: the % may be the effect or the level left
Caenorhabditis elegans [13] = test: Antioxidant activity in Caenorhabditis elegans CL4176 expressing human amyloid-beta peptide assessed as decrease in ROS level at 50 uM incubated for 7 days by H2DCF-DA probe based analysis relative to control; format: functional; design: scale not given: the % may be the effect or the level left; details: time 7 day
[14] = Induction of neuronal differentiation in rat PC-12 cells assessed as neurite growth at 10 uM incubated for 48 hrs in presence of NGF by microscopic analysis (reference value: 8.39 +/- 0.03 %); format: functional
[15] = Induction of neuronal differentiation in rat PC-12 cells assessed as neurite growth by measuring fold change at 10 uM incubated for 48 hrs in presence of NGF by microscopic analysis relative to NGF; format: functional
BV-2 [16] = test: Anti-inflammatory activity against mouse BV-2 cells assessed as inhibition of LPS-induced p-JNK activation at 30 uM pretreated for 3 hrs followed by LPS addition measured after 24 hrs; format: functional, cell-based; details: time 27.0 hrs
BV-2 [17] = test: Anti-inflammatory activity against mouse BV-2 cells assessed as reduction in LPS-induced COX-2 expression pretreated for 3 hrs followed by LPS addition measured after 24 hrs by immunofluorescence based analysis; format: functional, cell-based; details: dose 3-30 µM
BV-2 [18] = test: Anti-inflammatory activity against mouse BV-2 cells assessed as inhibition of LPS-induced NF-kappaB p65 nuclear entry at 3 to 30 uM pretreated for 3 hrs followed by LPS addition measured after 24 hrs by Western blot analysis; format: functional, cell-based; details: dose 3-30 µM, time 27.0 hrs
PC-12 [19] = test: Neuroprotective activity against H2O2-induced neurotoxicity in rat PC-12 cells incubated for 24 hrs by MTT assay; format: functional, cell-based; details: dose 5-40 µM
Caenorhabditis elegans [20] = test: Antialzheimer activity in transgenic Caenorhabditis elegans CL4176 expressing human amyloid-beta peptide assessed as decrease in paralysis rate at 25 uM incubated for 14 hrs; format: functional, organism-based

SMILES: O=c1c(O)c(-c2ccc(O)c(O)c2)oc2cc(O)cc(O)c12 [QUERCETIN]
pIC50 (BV-2 [1]): 4.93

pIC50 (BV-2 [1]): 4.66
SMILES: C=C(C)[C@H](O)CC[C@@]1(C)[C@@H]2CC[C@]3(C)Oc4cc(C)cc(O)c4[C@H]1[C@H]23
Activity (PC-12 [2]): Active; Activity Was Comparable To That Of Ngf
Activity (PC-12 [3]): Active; Activity Was Comparable To That Of Ngf

pIC50 (BV-2 [1]): < 4.52
SMILES: C=C(C)[C@@H]1CC[C@]2(C)Oc3cc(C)cc(O)c3C[C@H]12
Activity (PC-12 [2]): Active; Activity Was Comparable To That Of Ngf
Activity (PC-12 [3]): Active; Activity Was Comparable To That Of Ngf

SMILES: COC(C)(C)CC(=O)[C@@H]1[C@H]2c3c(O)cc(C)cc3O[C@@]3(C)CCC[C@]1(C)[C@@H]23
Activity (PC-12 [2]): Active; Activity Was Comparable To That Of Ngf
Activity (PC-12 [3]): Active; Activity Was Comparable To That Of Ngf
Activity (PC-12 [4]): Active
Activity (PC-12 [5]): Dose-dependent-effect

SMILES: C=C(C)[C@@H](O)CC[C@@]1(C)[C@@H]2CC[C@]3(C)Oc4cc(C)cc(O)c4[C@H]1[C@H]23
Activity (PC-12 [3]): Active; Capable Of Rescuing Cell Injury To Greater Extent

pIC50 (BV-2 [1]): 4.80
SMILES: CC(C)=CC(=O)C[C@]1(C)Oc2cc(C)cc3c2[C@H]2C[C@](C)(CC[C@H]21)O3
Activity (BV-2 [6]): Active
Activity (BV-2 [7]): Active
inhibition (BV-2 [8]): Active; Activity Was Comparable To That Of Quercetin
inhibition (BV-2 [9]): Dose-dependent-effect
Activity (PC-12 [2]): Active; Activity Was Comparable To That Of Ngf
Activity (PC-12 [3]): Active; Activity Was Comparable To That Of Ngf
Activity (PC-12 [10]): Active; Exhibited More Activity Than That Of Positive Group
Activity (PC-12 [11]): Active; Exhibited More Activity Than That Of Positive Group
Activity (Caenorhabditis elegans [12]): ~20%
Activity (Caenorhabditis elegans [13]): >=15.2%

SMILES: COC(C)(C)C/C=C/C(C)=C/CC[C@@]1(C)C=Cc2c(O)cc(C)cc2O1
Activity (PC-12 [4]): Active
Activity (PC-12 [5]): Dose-dependent-effect
Activity [14]: 22.93%
fold change (FC) [15]: ~3

pIC50 (BV-2 [1]): 4.80
SMILES: C/C(=C\CC/C(C)=C/CC[C@@]1(C)C=Cc2c(O)cc(C)cc2O1)CO
Activity (BV-2 [6]): Dose-dependent-effect
Activity (BV-2 [7]): Dose-dependent-effect
inhibition (BV-2 [16]): Active; Exhibited Mild Inhibition

SMILES: Cc1cc(O)c2c(c1)O[C@@]1(C)CC[C@@H](C(C)(C)O)[C@@H]2C1
Activity (PC-12 [3]): Active; Capable Of Rescuing Cell Injury To Greater Extent

pIC50 (BV-2 [1]): 4.95
SMILES: C/C(=C/CC/C(C)=C/CC[C@@]1(C)C=Cc2c(O)cc(C)cc2O1)CO

SMILES: CC(C)=CC(=O)[C@@H]1[C@H]2c3c(O)cc(C)cc3O[C@@]3(C)CCC[C@]1(C)[C@@H]23
pIC50 (BV-2 [1]): 4.76
Activity (BV-2 [6]): Dose-dependent-effect; Exhibited More Potency Than Quercetin
Activity (BV-2 [7]): Dose-dependent-effect; Exhibited More Potency Than Quercetin
Activity (BV-2 [17]): Dose-dependent-effect
inhibition (BV-2 [8]): Active; Activity Was Comparable To That Of Quercetin
inhibition (BV-2 [18]): Active; Exhibited Mild Inhibition
Activity (PC-12 [19]): Dose-dependent-effect; Activity Was Comparable To That Of Ngf
Activity (PC-12 [3]): Active; Activity Was Comparable To That Of Ngf
Activity (Caenorhabditis elegans [20]): Active; Activity Was Comparable With Quercetin At 50 Um
Activity (Caenorhabditis elegans [13]): >=18.7%

pIC50 (BV-2 [1]): < 4.52
SMILES: Cc1cc(O)c2c(c1)O[C@@]1(C)CC[C@H]3O[C@@H]2[C@@H]1C3(C)C
Activity (PC-12 [2]): Active; Activity Was Comparable To That Of Ngf
Activity (PC-12 [3]): Active; Activity Was Comparable To That Of Ngf
Activity (PC-12 [4]): Active
Activity (PC-12 [5]): Dose-dependent-effect
Activity [14]: 21.85%
fold change (FC) [15]: ~3

pIC50 (BV-2 [1]): 4.67
SMILES: C/C(=C\CC[C@@]1(C)C=Cc2c(O)cc(C)cc2O1)CC(=O)CC(C)C

pIC50 (BV-2 [1]): 4.72
SMILES: CC(C)=CCC/C(C)=C/CC/C(C)=C/Cc1c(O)cc(C)cc1O [GRIFOLIN]
Activity (PC-12 [10]): Active
Activity (PC-12 [11]): Active

pIC50 (BV-2 [1]): 4.70
SMILES: CC(C)=CC[C@H](O)/C(C)=C/CC[C@@]1(C)C=Cc2c(O)cc(C)cc2O1
Activity (PC-12 [4]): Active
Activity (PC-12 [5]): Dose-dependent-effect

SMILES: Cc1cc(O)c2c(c1)O[C@@]1(C)CCC[C@@]3(C)[C@H](C(=O)CC(C)C)[C@@H]2[C@H]31
pIC50 (BV-2 [1]): 4.55
Activity (PC-12 [2]): Active
Activity (PC-12 [3]): Active; Capable Of Rescuing Cell Injury To Greater Extent
Activity (PC-12 [4]): Active
Activity (PC-12 [5]): Dose-dependent-effect

pIC50 (BV-2 [1]): 4.60
SMILES: C=C(C)[C@@H](O)CC/C(C)=C/CC[C@@]1(C)C=Cc2c(O)cc(C)cc2O1

pIC50 (BV-2 [1]): 4.70
SMILES: C/C(=C\Cc1c(O)cc(C)cc1O)CC/C=C(\C)CC(=O)CC(C)C

— ChEMBL document CHEMBL6078721, “Structurally diverse chromane meroterpenoids from Rhododendron capitatum with multifunctional neuroprotective effects” (Eur J Med Chem, 2025)
